{"source": "PubChem BioAssay AID1259407", "about": "(Chemical Carcinogenesis Research Information System (CCRIS), 2018)", "system": "CCRIS mutagenicity, Ames/micronucleus/aberration tests", "assay": "CCRIS mutagenicity studies", "key": {"[1]": {"settings": "Test System: AMES SALMONELLA TYPHIMURIUM, Strain/Indicator: TA98, Metabolic Activation: NONE, Method: STANDARD PLATE"}, "[2]": {"settings": "Test System: AMES SALMONELLA TYPHIMURIUM, Strain/Indicator: TA100, Metabolic Activation: NONE, Method: STANDARD PLATE"}, "[3]": {"settings": "Test System: AMES SALMONELLA TYPHIMURIUM, Strain/Indicator: TA98, Metabolic Activation: RAT, LIVER, S-9, AROCLOR 1254, Method: STANDARD PLATE"}}, "note": "Calls of active or inactive are those of the source. No rule for the calls is given here."}
{"smiles": "Nc1cc(S(=O)(=O)[O-])cc2c1C(=O)/C(=N\\Nc1ccc(-c3ccc(N/N=C4\\C(=O)c5c(N)cc(S(=O)(=O)[O-])cc5C=C4S(=O)(=O)[O-])c(O)c3)cc1O)C(S(=O)(=O)[O-])=C2.[Cu].[Cu].[Na+].[Na+].[Na+].[Na+]", "values": [{"measurement": "mutagenic call", "setting": "Test System: AMES SALMONELLA TYPHIMURIUM, Strain/Indicator: TA98, Metabolic Activation: HAMSTER, LIVER, S-9, AROCLOR 1254 (10%), Method: PREINCUBATION", "result": "inactive; negative"}, {"measurement": "mutagenic call", "setting": "Test System: AMES SALMONELLA TYPHIMURIUM, Strain/Indicator: TA98, Metabolic Activation: NONE, Method: PREINCUBATION", "result": "inactive; negative"}, {"measurement": "mutagenic call", "setting": "Test System: AMES SALMONELLA TYPHIMURIUM, Strain/Indicator: TA98, Metabolic Activation: RAT, LIVER, S-9, AROCLOR 1254 (10%), Method: PREINCUBATION", "result": "inactive; negative"}, {"measurement": "mutagenic call", "setting": "Test System: AMES SALMONELLA TYPHIMURIUM, Strain/Indicator: TA100, Metabolic Activation: HAMSTER, LIVER, S-9, AROCLOR 1254 (10%), Method: PREINCUBATION", "result": "inactive; negative"}, {"measurement": "mutagenic call", "setting": "Test System: AMES SALMONELLA TYPHIMURIUM, Strain/Indicator: TA100, Metabolic Activation: NONE, Method: PREINCUBATION", "result": "inactive; negative"}, {"measurement": "mutagenic call", "setting": "Test System: AMES SALMONELLA TYPHIMURIUM, Strain/Indicator: TA100, Metabolic Activation: RAT, LIVER, S-9, AROCLOR 1254 (10%), Method: PREINCUBATION", "result": "inactive; negative"}, {"measurement": "mutagenic call", "setting": "Test System: AMES SALMONELLA TYPHIMURIUM, Strain/Indicator: TA1535, Metabolic Activation: HAMSTER, LIVER, S-9, AROCLOR 1254 (10%), Method: PREINCUBATION", "result": "inactive; negative"}, {"measurement": "mutagenic call", "setting": "Test System: AMES SALMONELLA TYPHIMURIUM, Strain/Indicator: TA1535, Metabolic Activation: NONE, Method: PREINCUBATION", "result": "inactive; negative"}, {"measurement": "mutagenic call", "setting": "Test System: AMES SALMONELLA TYPHIMURIUM, Strain/Indicator: TA1535, Metabolic Activation: RAT, LIVER, S-9, AROCLOR 1254 (10%), Method: PREINCUBATION", "result": "inactive; negative"}, {"measurement": "mutagenic call", "setting": "Test System: AMES SALMONELLA TYPHIMURIUM, Strain/Indicator: TA1537, Metabolic Activation: HAMSTER, LIVER, S-9, AROCLOR 1254 (10%), Method: PREINCUBATION", "result": "inactive; negative"}, {"measurement": "mutagenic call", "setting": "Test System: AMES SALMONELLA TYPHIMURIUM, Strain/Indicator: TA1537, Metabolic Activation: NONE, Method: PREINCUBATION", "result": "inactive; negative"}, {"measurement": "mutagenic call", "setting": "Test System: AMES SALMONELLA TYPHIMURIUM, Strain/Indicator: TA1537, Metabolic Activation: RAT, LIVER, S-9, AROCLOR 1254 (10%), Method: PREINCUBATION", "result": "inactive; negative"}, {"measurement": "mutagenic call", "setting": "Test System: AMES SALMONELLA TYPHIMURIUM, Strain/Indicator: TA1538, Metabolic Activation: RAT, LIVER, S-9, AROCLOR 1254, Method: STANDARD PLATE", "result": "inactive; negative"}]}
{"smiles": "Cc1ccc([N+](=O)[O-])c2c(NCCCN(C)C)c3ccccc3nc12", "values": [{"measurement": "mutagenic call", "setting": "[1]", "result": "active; positive"}, {"measurement": "mutagenic call", "setting": "[2]", "result": "active; positive"}]}
{"smiles": "CN(C)C(=O)c1nc2n(n1)-c1ccc(Cl)cc1C(c1ccccc1Cl)=NC2", "values": [{"measurement": "mutagenic call", "setting": "[1]", "result": "inactive; negative"}, {"measurement": "mutagenic call", "setting": "[3]", "result": "inactive; negative"}, {"measurement": "mutagenic call", "setting": "[2]", "result": "inactive; negative"}, {"measurement": "mutagenic call", "setting": "Test System: AMES SALMONELLA TYPHIMURIUM, Strain/Indicator: TA100, Metabolic Activation: RAT, LIVER, S-9, AROCLOR 1254, Method: STANDARD PLATE", "result": "inactive; negative"}, {"measurement": "mutagenic call", "setting": "Test System: AMES SALMONELLA TYPHIMURIUM, Strain/Indicator: TA102, Metabolic Activation: NONE, Method: STANDARD PLATE", "result": "inactive; negative"}, {"measurement": "mutagenic call", "setting": "Test System: AMES SALMONELLA TYPHIMURIUM, Strain/Indicator: TA102, Metabolic Activation: RAT, LIVER, S-9, AROCLOR 1254, Method: STANDARD PLATE", "result": "inactive; negative"}, {"measurement": "mutagenic call", "setting": "Test System: AMES SALMONELLA TYPHIMURIUM, Strain/Indicator: TA1535, Metabolic Activation: NONE, Method: STANDARD PLATE", "result": "inactive; negative"}, {"measurement": "mutagenic call", "setting": "Test System: AMES SALMONELLA TYPHIMURIUM, Strain/Indicator: TA1535, Metabolic Activation: RAT, LIVER, S-9, AROCLOR 1254, Method: STANDARD PLATE", "result": "inactive; negative"}, {"measurement": "mutagenic call", "setting": "Test System: AMES SALMONELLA TYPHIMURIUM, Strain/Indicator: TA1537, Metabolic Activation: NONE, Method: STANDARD PLATE", "result": "inactive; negative"}, {"measurement": "mutagenic call", "setting": "Test System: AMES SALMONELLA TYPHIMURIUM, Strain/Indicator: TA1537, Metabolic Activation: RAT, LIVER, S-9, AROCLOR 1254, Method: STANDARD PLATE", "result": "inactive; negative"}, {"measurement": "mutagenic call", "setting": "Test System: E. COLI, Strain/Indicator: WP2 UVRA, Metabolic Activation: NONE, Method: STANDARD PLATE", "result": "inactive; negative"}, {"measurement": "mutagenic call", "setting": "Test System: E. COLI, Strain/Indicator: WP2 UVRA, Metabolic Activation: RAT, LIVER, S-9, AROCLOR 1254, Method: STANDARD PLATE", "result": "inactive; negative"}]}
{"smiles": "S=C1SSC2=NCCN12", "values": [{"measurement": "mutagenic call", "setting": "Test System: AMES SALMONELLA TYPHIMURIUM, Strain/Indicator: TA97, Metabolic Activation: NONE, Method: STANDARD PLATE", "result": "inactive; negative"}, {"measurement": "mutagenic call", "setting": "Test System: AMES SALMONELLA TYPHIMURIUM, Strain/Indicator: TA97, Metabolic Activation: RAT, LIVER, S-9, AROCLOR 1254, Method: STANDARD PLATE", "result": "inactive; negative"}, {"measurement": "mutagenic call", "setting": "[1]", "result": "inactive; negative"}, {"measurement": "mutagenic call", "setting": "[3]", "result": "inactive; negative"}, {"measurement": "mutagenic call", "setting": "[2]", "result": "inactive; negative"}]}
